Assay results from US10058525B2, “Application of chlorogenic acid in preparing medicines for treating lupus erythematosus” (SICHUAN JIUZHANG BIOLOGICAL SCIENCE AND TECHNOLOGY CO., LTD., priority 2015, dated 2018).
“Also recorded” adds a separate entry of the source.

Legend:
[1] = test system: lupus erythematosus model mice (renal glomerular capsule wall epithelial cells); assay: Electron microscope observation of kidney samples, lupus model mice; type: in vivo, BALB/c mice; settings: 21 days
Protocol: The back of mice was shaved and acutely exposed to Ultraviolet of 2 h/d*3 d, with a distance of 30 cm. After exposure to UV, 2.5 mg/kg of LPS was administrated once by ip, and after 24 h, the model was successfully established; the mice in the normal control group received normal saline via ip. 24 h after injection of LPS (ip), medicines were given to the model mice by intragastric administration. Chlorogenic acid test groups received high, middle, and low doses of medicines, by intragastric administration at a respective dosage of 10 mg/kg*d, 20 mg/kg*d, and 40 mg/kg*d. The positive control group A received 2 mg/kg*d of artesunate by stomach perfusion, while the positive control group B received 1 mg/kg*d of prednisone by stomach perfusion. Mice in the model and normal control group all received 0.4 ml/mouse normal saline by gavage. After 15 days of administration, animals in each group were taken blood by separating eyeballs on days 14, 21, 28, and after cultured in water bath at 37° C. for 1 h, the blood sample was centrifugated at 2000 r/min for 5 min, to draw serum for use. On day 21, after blood collection, animals were sacrificed by dislocation, followed by collection of liver and kidney, and they were placed in fixative solutions of electron microscope and light microscrope, respectively. On day 21, the sample used for observation under electron microscope was fixed in mixed stationary solution of 2% paraformaldehyde+0.25% glutaral for 4 h, rinsed with TBS, treated with 1% osmic acid, followed by fixation for 1 h, rinsed with buffer solution, dehydrated with acetone, dyed with uranyl acetate for 2 h, macerated in Epon812 and embedded, and cut into slices with LEICA ultramicrotome. The slices were stained with lead solution, and the sample was observed under transmission electron microscope when it was dry.

[2] = test system: ANA; assay: Serologic detection of ANA by immunofluorescence on HEp-2 cell sheets, serum of UV + LPS lupus model mice; type: in vivo, BALB/c mice; set-up: key: (+): positive; (−): negative; (++++): intenseintensity; (+++): stronger fluorescent intensity; settings: day 14, intragastric
Protocol: The back of mice was shaved and acutely exposed to Ultraviolet of 2 h/d*3 d, with a distance of 30 cm. After exposure to UV, 2.5 mg/kg of LPS was administrated once by ip, and after 24 h, the model was successfully established; the mice in the normal control group received normal saline via ip. 24 h after injection of LPS (ip), medicines were given to the model mice by intragastric administration. Chlorogenic acid test groups received high, middle, and low doses of medicines, by intragastric administration at a respective dosage of 10 mg/kg*d, 20 mg/kg*d, and 40 mg/kg*d. The positive control group A received 2 mg/kg*d of artesunate by stomach perfusion, while the positive control group B received 1 mg/kg*d of prednisone by stomach perfusion. Mice in the model and normal control group all received 0.4 ml/mouse normal saline by gavage. After 15 days of administration, animals in each group were taken blood by separating eyeballs on days 14, 21, 28, and after cultured in water bath at 37° C. for 1 h, the blood sample was centrifugated at 2000 r/min for 5 min, to draw serum for use. On day 21, after blood collection, animals were sacrificed by dislocation, followed by collection of liver and kidney, and they were placed in fixative solutions of electron microscope and light microscrope, respectively. Serum of mice was diluted at 1:100 with special buffer solution of Shenzhen Hengjia, and then 200 μL of diluted serum was respectively added to the reactive tank with corresponding number, cultured in the incubator at 37° C. for 30 min, and washed with the buffer solution four times, 2 min for each time; 200 μL of diluted biotin goat anti-mouse IgG (1:100) was added, cultured in the incubator at 37° C. for 30 min, and then washed with the buffer solution four times, 2 min for each time; 100 μL of diluted HRP-avidin (1:100) was added, cultured in the incubator at 37° C. for 30 min, and then washed as mentioned-above; reactive solutions A and B were added till appearance of positive bands, then washed with the buffer solution. Compared with the standard bands of ENA polypeptide antibody spectrum in the same kit, if the positive bands appeared at 28/29,13.5 ku polypeptide; 15,16.5,38 kupolypeptide; 52 kupolypeptide and 47/48,45 kupolypeptide, that can be determined as anti-Sm, anti-Rib, anti-ssA, and anti-ssB positive antibody. Serum was diluted with PBS at 1:40, then 20-30 μL of diluted serum was dropped into the scrobiculus of HEp-2 cell sheets, each cell sheet for each group. In the process of dropping serum, it should be noted that the surface of cell sheet can not be touched. After addition of serum, cell sheet was placed in wet box and kept for 30 min at room temperature (25° C.). After 30 min, the cell sheet was taken out, and serum was carefully washed out with PBS, then carefully washed twice with PBS, 5 min for each time; after washing, the remained PBS was removed by special absorbent paper of […] company (In this process, it should be noted that becoming dry of cell substrates will affect the results). 20-30 μL of diluted (PBS, 1:100) FITC goat anti-mouse IgG was added by dropping, and then incubated in wet box at room temperature for 30 min. After washing with PBS, steps were same to above. The remained PBS was removed by absorbent paper, and 1-2 drops of fluorescent mounting media were added to the cell sheet. The cover glass was mounted, observed under Olympus BH-2 universal microscope, and then photographed.

Compound: O=C(/C=C/c1ccc(O)c(O)c1)O[C@@H]1C[C@](O)(C(=O)O)C[C@@H](O)[C@H]1O [Chlorogenic acid, 3-O-caffeoylquinic acid]
- proliferative degree of renal glomerular capsule wall epithelial cells ([1]; chlorogenic acid (all dose groups)): somewhat relieved
- proliferative degree of glomerular capsule wall epithelial cells ([1]; high-dose group of chlorogenic acid): somewhat relieves; also recorded: the release degree in high dose group was the most obvious
- ANA ([2]; chlorogenic acid high dose): (+++)
- ANA ([2]; chlorogenic acid low dose): (++++)
- ANA ([2]; chlorogenic acid middle dose): (+++)
